Test [1] has as its system HIV-1LAI virus. How it is done:
(§1) Synthetic peptides were incubated at 37° C. with either 247 TCID50 (for experiment depicted in FIG. 2), or 62 TCID50 (for experiment depicted in FIG. 3) units of HIV-1LAI virus or 25 TCID50 units of HIV-2NIHZ and CEM CD4^+ cells at peptide concentrations of 0, 0.04, 0.4, 4.0, and 40 μg/ml for 7 days. The resulting reverse transcriptase (RT) activity in counts per minute was determined using the assay described, below, in Section 6.1.5. See Reed, L. J. et al., 1938, Am. J. Hyg. 27: 493-497 for an explanation of TCID50 calculations.
(§2) The micro-reverse transcriptase (RT) assay was adapted from Goff et al. (Goff, S. et al., 1981, J. Virol. 38:239-248) and Willey et al. (Willey, R. et al., 1988, J. Virol. 62:139-147). Supernatants from virus/cell cultures are adjusted to 1% Triton-X100. A 10 μl sample of supernatant was added to 50 μl of RT cocktail in a 96-well U-bottom microtitre plate and the samples incubated at 37° C. for 90 min. The RT cocktail contained 75 mM KCl, 2 mM dithiothreitol, 5 mM MgCl2, 5 μg/ml poly A (Pharmacia, cat. No. 27-4110-01), 0.25 units/ml oligo dT (Pharmacia, cat. No. 27-7858-01), 0.05% NP40, 50 mM Tris-HCl, pH 7.8, 0.5 μM non-radioactive dTTP, and 10 μCi/ml ^32P-dTTP (Amersham, cat. No. PB.10167).
After the incubation period, 40 μl of reaction mixture was applied to a Schleicher and Schuell (S+S) NA45 membrane (or DE81 paper) saturated in 2×SSC buffer (0.3M NaCl and 0.003M sodium citrate) held in a S+S Minifold over one sheet of GB003 (S+S) filter paper, with partial vacuum applied. Each well of the minifold was washed four times with 200 μl 2×SSC, under full vacuum. The membrane was removed from the minifold and washed 2 more times in a pyrex dish with an excess of 2×SSC. Finally, the membrane was drained on absorbent paper, placed on Whatman #3 paper, covered with Saran wrap, and exposed to film overnight at −70° C.
DP178 (SEQ ID:1) was next tested for its ability to block CD-4^+ CEM cell infection by cell free HIV-1 virus. […]

For another test, the system named is HIV-2. Kind of test: Fusion inhibition assay, HIV-2 mediated syncytia formation. The class given is cell-based. The following applies: FIG. 5.
The subject of another test is HIV-1/IIIb. Nature of the test: Anti-HIV assays of DP107/DP178 truncations and mutations. Format: cell-based. Conditions: worded 'results shown are for 4 ng/ml'. An excerpt:
Anti-HIV assays: The antiviral assays performed were as those described, above, in Section 6.1. Assays utilized HIV-1/IIIb and/or HIV-2 NIHZ isolates. Purified peptides were used, unless otherwise noted in FIGS. 49A-C.

The next test relates to HIV-2NIHZ. Nature of the test: Cell free virus infection assay (RT production). The class given is cell-based. The following applies: 25 TCID50 HIV-2NIHZ, CEM cells, 7 days. How it is done: as §1
as §2, with “PB.10167). […]” for “PB.10167).”

The subject of a further test is HIV-1IIIB. Format: cell-based.
The test system of test [2] is HIV-1IIIB chronically infected CEM cells. Format: cell-based. Conditions: 10 nM. On the procedure: Cell fusion assays were performed as previously described (Matthews et al., 1987, Proc. Natl. Acad. Sci. USA 84: […]). CEM cells (7×10^4) were incubated with HIV-1IIIB chronically infected CEM cells (10^4) in 96-well flat-bottomed half-area plates (Costar) in 100 μl culture medium. Peptide and fusion proteins at various concentrations in 10 μl culture medium were incubated with the cell mixtures at 37° C. for 24 hours. Multinucleated syncytia were estimated with microscopic examination.
No peptide or fusion protein was added in the control samples.

A further test deals with Fab-d. Nature of the test: ELISA analysis of DP178 binding to the leucine zipper motif of gp41 (Fab-d ELISA). The arrangement: species or system human. Conditions: reagent alone. How it is done: The amino acid sequence of DP178 used is: […]. […] Each well was washed three times with distilled water then blocked with 3% bovine serum albumin (BSA) for 2 hours. After blocking, peptides with 0.5% BSA in TBST (40 mM Tris-HCl pH7.5, 150 mM NaCl, 0.05% Tween 20) were added to the ELISA plates and incubated at room temperature for 1 hour. After washing three times with TBST, Fab-d was added at a concentration of 10 ng/ml with 0.5% BSA in TBST. The plates were washed three times with TBST after incubation at room temperature for 1 hour. Horse radish peroxidase (HRP) conjugated goat antihuman Fab antiserum at a 2000 fold dilution in TBST with 0.5% BSA was added to each well and incubated at room temperature for 45 minutes. The plates were then washed four times with TBST. The peroxidase substrate o-phenylene diamine (2.5 mg/ml) and 0.15% H2O2 were added to develop the color. The reaction was stopped with an equal volume of 4.5 N H2SO4 after incubation at room temperature for 10 minutes. The optical density of the stopped reaction mixture was measured with a micro plate reader (Molecular Design) at 490 nm.

Test [3] relates to HIV-1LAI virus. Nature of the test: Cell fusion assay (HIV-1 induced syncytia formation). The class given is cell-based. An excerpt: The results of several such experiments are presented herein.

Bounds are passed on as bounds.

The text below walks through data of US6750008B1, “Methods and compositions for inhibition of membrane fusion-associated events, including HIV transmission” (priority 1999, dated 2004).

Broadly, the IC90 is the concentration needed for an effect of 90%.

For Enfuvirtide, the “IC50, inhibition of RT production” value with HIV-1LAI virus [1] (62 TCID50 HIV-1LAI, CEM cells, 7 days) is listed as “about 31 ng/ml”. In addition, the “potency as HIV-1 inhibitor relative to HIV-2 inhibitor” value with HIV-1LAI virus [1] (cell free virus infection) is on record as “two logs more potent”. In addition, the “concentration failing to block HIV-2 mediated syncytia formation” value in the test on HIV-2 was over 10 µg/mL. Further, in the test on HIV-1/IIIb, the “anti-HIV antiviral data, results shown (FIGS. 49A-C)” value came to 4 ng/mL. In addition, the “IC50 for HIV-2NIHZ” value in the test with HIV-2NIHZ was “much higher”. The substance further showed an IC90 with HIV-1IIIB of 80 nM. In test [2], the “syncytia in HIV-1 induced cell-cell fusion” value is “not observable syncytia”. Also, in the test with Fab-d, the “binding of Fab-d” value is reported as “failed to bind”. Also, in the test on HIV-1LAI virus [3], the “selectivity as inhibitor of HIV-1-mediated over HIV-2 mediated cell fusion” value came out at 4 log. Also, the “peptide concentration blocking HIV-1-mediated syncytia formation” value with HIV-1LAI virus [3] (FIG. 5, HIV-1 vs HIV-2) is “below 1 ng/ml”. Besides, the “complete protection against syncytium formation down to lowest concentration tested” value with HIV-1LAI virus [3] (HIV-1LAI) was at most 12.5 ng/mL. In the test on HIV-1LAI virus [3] (Molt cells + chronically HIV-1 infected CEM cells, 24 hr), the “lowest effective inhibitory concentration, complete block of virus induced syncytia formation” value was 1 to 10 ng/mL. For the same substance, in the test with HIV-1LAI virus [3] (all other HIV-1 viruses (HIV-1MN, HIV-1RF, HIV-1SF2)), the “complete protection against syncytium formation down to lowest concentration used” value was at most 100 ng/mL.
